Assay results taken from patent US5262421A, “Use of dicentrine and its derivatives for the treatment of hypertension, arrhythmia, thrombosis and atherosclerosis” (National Science Council, priority 1991, dated 1993).
Entries after “also recorded” stand apart in the source; their conditions may differ.

Tests used:
[1] = test system: α1-adrenoceptor (rat thoracic aortae); experiment: Schild analysis of α1-adrenoceptor antagonism: norepinephrine- and phenylephrine-induced contraction of rat thoracic aortae
Description: Results are given as means ± S.E.M. or the mean with 95% confidence

[2] = test system: isolated thoracic aorta of rats fed with high cholesterol and high fat diet; experiment: Contractile force of isolated thoracic aorta from rats fed high cholesterol and high fat diet; type: in vivo, rat; conditions: for contractile force: high cholesterol & fat diet, dicentrine 10 mg/kg, prazosin 5 mg/kg
[3] = test system: washed rabbit platelets; experiment: Aggregation of washed rabbit platelets induced by arachidonic acid, collagen, thrombin, ADP or PAF; type: cell-based; conditions: for Aggregation (%): dicentrine 150 μM
Description: These fractions inhibited the aggregation of washed rabbit platelets induced by ADP, collagen, arachidonic acid and platelet-activating factor (PAF). […] Furthermore, the action potential of rat ventricular cells was prolonged by these fractions. After rechromatography on a silica gel column with n-hexane-ethylacetate (2:1), four potent compounds, dicentrine, N-methylnandigerine, N-methylovigenine and dicentrinone were obtained.
500 g of dried, ground root material Lindera oldhamu (megaphylla) Hemsl was extracted with 95% ethanol, and the extract was concentrated in vacuo and fractionated into ethanol- and ethylacetate-soluble fractions. The ethylacetate-soluble fraction was then applied to a column of silica gel and eight fractions were obtained.
(§1) Means ± S.E.M. are presented. *: P < 0.05, **: P < 0.01, ***: P < 0.00
(§2) as compared with the respective control. Concentration: arachidonic acid
(100 μM), collagen (10 μg/ml), norepinephrine (NE, 3 μM), each
(§3) At 6 min after the addition of inducer, indomethacin (50 μM) and EDTA (2 mM) were added to stop the reaction, and thromboxane B2 was assayed by RIA kits.
(§4) (100 μM), collagen (10 ug/ml), thrombin (0.1 U/ml), dicentrine (150

[4] = test system: guinea-pig trachea; experiment: Contraction and relaxation of guinea-pig trachea; conditions: in words
[5] = test system: rats fed with high cholesterol and high fat diet; experiment: Blood cholesterol and triglyceride in rats fed high cholesterol and high fat diet; type: in vivo, rat; conditions: for Cholesterol / Triglyceride: high cholesterol & fat diet, dicentrine 10 mg/kg or prazosin 5 mg/kg, oral twice a day in last week; for Cholesterol: diet control 120 ± 7.1, normal diet 62 ± 4.5; for Triglyceride: diet control 305 ± 11.1, normal diet 84 ± 5.4
[6] = test system: conscious spontaneously hypertensive (SH) and normotensive (NT) rats; experiment: Mean arterial pressure in conscious spontaneously hypertensive (SH) and normotensive (NT) rats; type: in vivo, rat
[7] = test system: rat thoracic aorta; experiment: Aortic contraction induced by other agonists; conditions: in words
[8] = test system: rat thoracic aortae; experiment: Norepinephrine-induced contraction of rat thoracic aortae (phasic and tonic); conditions: in words
[9] = test system: rat ventricular cells; experiment: Action potential of rat ventricular cells; type: cell-based; conditions: for Tp (time to peak) / APD50 (action potential duration at 50% repolarization) / AP amplitude (initial upstroke amplitude): 3 μM; for Tp (time to peak): control 5.0 ± 0.5 (dicentrine), 5.3 ± 0.5 (quinidine); for APD50 (action potential duration at 50% repolarization): control 59.9 ± 11.3 (dicentrine), 62.6 ± 3.9 (quinidine); for AP amplitude (initial upstroke amplitude): control 138.3 ± 2.6 (dicentrine), 135.2 ± 2.2 (quinidine)
Description: (§5) In rat ventricular cells, the effects of dicentrine on action potential and membrane current were studied. […] However, calcium current was less affected.
The effects of dicentrine and quinidine on action potential were compared and studied in rat ventricular cells. […] In addition to the prolongation of APD50, a depression of initial upstroke amplitude from 138.3±2.6 mV to 125.5±4.5 mV and prolongation of the time to peak amplitude from 5.0±0.5 msec to 10.0±1.9 msec were observed.
Means ± S.E.M. are presented. *: P < 0.05 as compared with the
APD50 : action potential duration measured at 50% repolarization fro
Tp : time to peak measured from the start of depolarization to the
Concentration: dicentrine (3 μM), quinidine (3 μM).

[10] = test system: Thromboxane B2 formation in washed rabbit platelets; experiment: Thromboxane B2 formation in washed rabbit platelets (RIA); type: cell-based; conditions: for Thromboxane B2: dicentrine 150 μM
Experimental: as §3, §1, §2, §4

[11] = test system: anesthetized rats; experiment: Systemic hemodynamic parameters of pentobarbital-anesthetized rats; type: in vivo, rat; conditions: for Blood flow: before 7 ± 4; for total peripheral resistance: dicentrine 1.0 mg/kg, prazosin 0.1 mg/kg
[12] = test system: membrane currents of rat ventricular cells; experiment: Voltage clamp, membrane currents in rat ventricular cells; type: cell-based
Description: as §5

[13] = oral twice a day (10 mg/kg) in the last week, in words
[14] = pentobarbital-anesthetized rats, in words

SMILES: COc1cc2c(cc1OC)-c1c3c(cc4c1[C@H](C2)N(C)CC4)OCO3 [dicentrine]
- α1-adrenoceptor antagonism, relative potency ([1]; comparison with prazosin, yohimbine and phentolamine): less potent than prazosin; also recorded: much more potent than phentolamine or yohimbine
- effects in denuded aortae ([1]; denuded aortae): still persisted
- norepinephrine- or phenylephrine-induced vasoconstriction of rat aortae ([1]; in words): competitive antagonism
- contractile force of aorta ([2]; cholesterol-triglyceride-treated rats, in words): restored the contractile force of cholesterol-triglyceride-treated rat aortae back to normal values
- maximal contractile force of isolated thoracic aorta [2, 13]: restored to normal range
- contractile force ([2]; phenylephrine 3 × 10^-6 M): 0.75 ± 0.12 g
- contractile force ([2]; phenylephrine 3 × 10^-7 M): 0.55 ± 0.07 g
- contractile force ([2]; phenylephrine 3 × 10^-8 M): 0.22 ± 0.05 g
- contractile force ([2]; phenylephrine 10^-6 M): 0.67 ± 0.11 g
- contractile force ([2]; phenylephrine 10^-7 M): 0.55 ± 0.07 g
- aggregation of washed rabbit platelets ([3]; induced by arachidonic acid and collagen, in words): inhibited
- Aggregation (%) ([3]; inducer arachidonic acid 100 μM, control 92 ± 1): 11 ± 7%
- Aggregation (%) ([3]; inducer collagen 10 ug/ml, control 94 ± 1): 51 ± 7%
- Aggregation (%) ([3]; inducer thrombin 0.1 U/ml, control 95 ± 2): 92 ± 2%
- contraction of guinea-pig trachea caused by histamine or carbachol [4]: slightly inhibited
- β-adrenoceptor relaxation to isoprenaline in trachea [4]: not affected
- serum triglyceride level ([5]; cholesterol-triglyceride-rich diet, in words): decreased
- Cholesterol [5]: 112 ± 4.6 mg/dL
- Triglyceride [5]: 108 ± 4.3 mg/dL
- blood cholesterol level [5, 13]: unchanged
- triglyceride level [5, 13]: restored to normal levels
- mean arterial pressure ([6]; conscious SH and NT rats): dose-related decreases in mean arterial pressure which were of a greater magnitude in SH rats than in NT rats
- duration of hypotensive effect ([6]; oral administration, conscious SH rats): over 15 hr
- aortic contraction induced by U-46619, angiotensin II, high potassium or carbachol [7]: did not affect
- vasorelaxant activity in rat thoracic aorta [8]: most potent vasorelaxant
- Tp (time to peak) [9]: 10.0 ± 1.9 ms
- Tp (time to peak) ([9]; listed as Dicentrine): 10.0 ± 1.9 ms
- APD50 (action potential duration at 50% repolarization) [9]: 201.9 ± 28.7 ms
- APD50 (action potential duration at 50% repolarization) ([9]; listed as Dicentrine): 201.9 ± 28.7 ms
- AP amplitude (initial upstroke amplitude) [9]: 125.5±4.5 mV
- AP amplitude (initial upstroke amplitude) ([9]; listed as Dicentrine): 125.5 ± 4.5 mV
- action potential ([9]; stimulation frequency 0.1 Hz): prolonged
- initial upstroke amplitude ([9]; stimulation frequency 0.1 Hz): reduced
- time to peak ([9]; stimulation frequency 0.1 Hz): increased
- Thromboxane formations ([10]; caused by arachidonic acid, collagen and thrombin, in words): all suppressed
- Thromboxane B2 ([10]; inducer arachidonic acid 100 μM, control 445 ± 44): 19 ± 15 ng/10^8 platelets
- Thromboxane B2 ([10]; inducer collagen 10 ug/ml, control 478 ± 93): 70 ± 5 ng/10^8 platelets
- Thromboxane B2 ([10]; inducer thrombin 0.1 U/ml, control 131 ± 25): 44 ± 14 ng/10^8 platelets
- Blood flow ([11]; after dicentrine 1.0 mg/kg): 200 ± 27
- CO ([11]; after dicentrine 1.0 mg/kg, before 21 ± 2): 25 ± 4 mL/min
- MAP ([11]; after dicentrine 1.0 mg/kg, before 122 ± 5): 62 ± 5 mm Hg
- HR ([11]; after dicentrine 1.0 mg/kg, before 353 ± 10): 348 ± 8 bpm
- hypotensive activity after α1-adrenoceptor blockade ([11]; after α1-adrenoceptor blockade): completely abolished
- mean arterial blood pressure ([11]; anesthetized rats, i.v. bolus 0.1-1.0 mg/kg): dose-related reduction
- duration of reduction in mean arterial blood pressure ([11]; anesthetized rats, i.v. bolus 0.1-1.0 mg/kg, throughout observation period): ≥ 2 h
- total peripheral resistance [11]: reduction
- cardiac output (CO) [11, 14]: little or no change
- heart rate (HR), or stroke volume (SV) [11, 14]: no change
- mean arterial pressure (MAP) [11, 14]: decrease
- calcium current [12]: less affected
- fast sodium inward current [12]: inhibition
- steady state outward current [12]: significant inhibition
- transient outward current [12]: significant inhibition

SMILES: COc1cc2nc(N3CCN(C(=O)c4ccco4)CC3)nc(N)c2cc1OC [prazosin, reference compound]
- contractile force ([2]; phenylephrine 3 × 10^-6 M): 0.87 ± 0.12 g
- contractile force ([2]; phenylephrine 3 × 10^-7 M): 0.70 ± 0.09 g
- contractile force ([2]; phenylephrine 3 × 10^-8 M): 0.30 ± 0.05 g
- contractile force ([2]; phenylephrine 10^-6 M): 0.80 ± 0.12 g
- contractile force ([2]; phenylephrine 10^-7 M): 0.51 ± 0.08 g
- Cholesterol [5]: 112 ± 3.9 mg/dL
- Triglyceride [5]: 114 ± 9.2 mg/dL
- Blood flow ([11]; after prazosin 0.1 mg/kg): 171 ± 14
- CO ([11]; after prazosin 0.1 mg/kg, before 27 ± 3): 32 ± 3 mL/min
- MAP ([11]; after prazosin 0.1 mg/kg, before 120 ± 4): 68 ± 6 mm Hg
- HR ([11]; after prazosin 0.1 mg/kg, before 367 ± 9): 337 ± 10 bpm
- total peripheral resistance [11]: reduction
- cardiac output (CO) [11, 14]: little or no change
- mean arterial pressure (MAP) [11, 14]: decrease

SMILES: C=C[C@H]1C[N@@]2CC[C@H]1C[C@@H]2[C@@H](O)c1ccnc2ccc(OC)cc12 [quinidine, reference compound]
- Tp (time to peak) [9]: 10.8 ± 2.4 ms
- APD50 (action potential duration at 50% repolarization) [9]: 276.0 ± 18.6 ms
- AP amplitude (initial upstroke amplitude) [9]: 121.2 ± 2.3 mV
